Assays:
VEGF protein = test: Growth factor protein quantitation in DP cell medium, VEGF; type: cell-based, human; conditions: for protein_VEGF: DP cell medium
Text: (§1) Next, we investigated the downstream effects of P5 on hair growth factor genes and proteins in DP cells. […] We tested whether P5 can also increase the mRNA levels and proteins of hair growth factors in DP cells: IGF‐1, VEGF, HGF, platelet‐derived growth factor alpha (PDGFA), and fibroblast growth factor (FGF) 7, which are known to induce or maintain the anagen phase of the hair cycle (Jindo et al, [1994]; Philpott et al, [1994]; Yano et al, [2001]; Jang, [2005]; Tomita et al, [2006]; Iino et al, [2007]).
Human DP cells were grown on a 100‐mm cell culture dish to 100% confluency. After washed by PBS three times, the cells were cultured with serum‐free DMEM and treated with P5. After 48 h, the medium was collected and filtered by a […]. The filtrate was then concentrated using a centrifugal concentrator (Vivaspin 6, 10‐kDa molecular weight cutoff, centrifuged 2,600 g at 4°C for 13 min, Sartorius Stedim Biotech). The signals of each protein in the concentrated media were detected and quantified, based on the enzyme‐linked immunosorbent assay (Human Cytokine Antibody Array C2000, RayBiotech).

[1] = test system: p-AMPK in ORS and DP cells of human HFs; test: IF staining p-AMPK of ex vivo cultured HF bulb; type: cell-based; conditions: vs vehicle
Text: We next investigated whether P5 can reproduce the effects of APN on hair growth promotion ex vivo (Won et al, [2012]) using ex vivo human HF organ culture model. […] The Ki‐67‐positive cell portion of the matrix area in the P5‐treated HFs was higher than that in the vehicle‐treated group (Fig 3E).
Paraffin‐embedded mouse cutaneous back tissue was sectioned (4 μm thickness) and stained with hematoxylin and eosin. For IF staining, human ORS cells cultured in FiTC‐P5, sectioned paraffin‐embedded human HFs (7 μm thickness), and sectioned paraffin‐embedded mouse cutaneous dorsal tissue or human skin tissue (5 μm thickness) were incubated at 4°C overnight with the following primary antibodies diluted in the diluent reagent (Invitrogen): phospho‐AMPK (#2535, 1:100; Cell Signaling), Ki‐67 (#M7240, 1:200; Dako), versican (#ab177480, 1:200; Abcam), or AdipoR1 antibody (#ab126611, 1:200; Abcam). After three washes with PBS, the slides were incubated with the secondary Alexa Fluor 488‐labeled anti‐mouse or rabbit IgG antibody (#ab150077, #ab150113, 1:200; Invitrogen), or Alexa Fluor 594‐labeled anti‐rabbit IgG antibody (#a11012, 1:200; Invitrogen) at 25°C for 1 h. Nuclei were counterstained with 4′,6‐diamidino‐2‐phenylindole (DAPI; #D1306, 1:1,000; Invitrogen). […] IF intensity was observed and recorded with a Nikon Eclipse Ni‐E fluorescence microscope (Nikon).

FGF7 mRNA = test: qRT-PCR growth factor gene expression in DP cells, FGF7; type: cell-based, human; conditions: for mRNA_FGF7: DP cells
Text: as §1
Total RNA was isolated from P5‐treated DP cells using RNAiso Plus (#9109; TaKaRa). We used the total RNA (1 µg) for cDNA synthesis using a RevertAid First Strand cDNA Synthesis Kit (Thermo Fisher) according to the manufacturer's instructions. The mRNA expression levels were quantified on a 7500 Real‐time PCR System (Thermo Fisher) using TB Green Premix Ex Taq (TaKaRa Bio): human IGF‐1, VEGF, HGF, PDGFA, FGF7, and glyceraldehyde 3‐phosphate dehydrogenase (GAPDH) (Appendix Table S2). The relative expression levels of each gene were determined by the 2^‐ΔΔCT method.

[2] = test system: AMPK phosphorylation in DP cells; test: Western blot p-AMPK, DP cells; type: cell-based, human; conditions: P5 0 - 50 μM, APN 2.5 μg/ml
Text: Following the confirmation of the molecular interaction between AdipoR1 and P5, we evaluated the activation of the intracellular signaling pathway by P5. We investigated whether APN treatment on ORS and DP cells could activate AMPK or ERK signaling pathways, which are previously known to be downstream effectors of AdipoR1 (Mao et al, [2006]; Deepa & Dong, [2009]; Shibata et al, [2012]). […] Next, for determination of whether both P5 and APN mediates the phosphorylation of AMPK through AdipoR1 in ORS and DP cells, the cells were transfected with AdipoR1 siRNA (Appendix Fig S1). […] Collectively, P5 activates AMPK signaling pathway through AdipoR1 in ORS and DP cells in vitro.
Human ORS and DP cells or skin tissue were lysed (RIPA lysis buffer; #20‐188; Merck Millipore). The obtained protein was then separated by 8% SDS–PAGE and transferred to a polyvinylidene fluoride membrane (Amersham). The protein transferred membranes were incubated overnight with the specific antibodies. […] Antibody‐antigen complexes detected by enhanced chemiluminescent substrate (Thermo Fisher) were captured and quantified by Amersham imager 680 systems (GE Healthcare).

[3] = P5 5μM, relative to Control = 1, replicate 1
[4] = P5 5μM, relative to Control = 1, replicate 2
[5] = P5 5μM, relative to Control = 1, replicate 3
[6] = P5 25μM, relative to Control = 1, replicate 1
[7] = P5 25μM, relative to Control = 1, replicate 2
[8] = P5 25μM, relative to Control = 1, replicate 3

GLYYF [P5, GST-fused (GST-P5) in pulldown assays]
protein_VEGF (VEGF protein; [3]): 1.476 | protein_VEGF (VEGF protein; [4]): 1.303 | protein_VEGF (VEGF protein; [5]): 1.526 | protein_VEGF (VEGF protein; [6]): 1.967 | protein_VEGF (VEGF protein; [7]): 2.185 | protein_VEGF (VEGF protein; [8]): 1.674 | VEGF protein expression level (VEGF protein; P5-treated DP cells, 48 h medium, n = 3): elevated | p-AMPK in HF bulb (IF staining) [1]: prominently detected in ORS and DP cells | mRNA_FGF7 (FGF7 mRNA; [3]): 1.288 | mRNA_FGF7 (FGF7 mRNA; [4]): 1.147 | mRNA_FGF7 (FGF7 mRNA; [5]): 3.986 | mRNA_FGF7 (FGF7 mRNA; P5 5μM, relative to Control = 1, replicate 4): 1.127 | mRNA_FGF7 (FGF7 mRNA; P5 5μM, relative to Control = 1, replicate 5): 3.017 | mRNA_FGF7 (FGF7 mRNA; P5 5μM, relative to Control = 1, replicate 6): 4.5839 | mRNA_FGF7 (FGF7 mRNA; [6]): 1.191 | mRNA_FGF7 (FGF7 mRNA; [7]): 1.18 | mRNA_FGF7 (FGF7 mRNA; [8]): 4.101 | mRNA_FGF7 (FGF7 mRNA; P5 25μM, relative to Control = 1, replicate 4): 1.133 | mRNA_FGF7 (FGF7 mRNA; P5 25μM, relative to Control = 1, replicate 5): 2.672 | mRNA_FGF7 (FGF7 mRNA; P5 25μM, relative to Control = 1, replicate 6): 4.897 | FGF7 mRNA expression (FGF7 mRNA; P5-treated DP cells, n = 6): significantly increased | Phosphorylation of AMPK, DP cells [2]: concentration‐dependent phosphorylation of AMPK
